Assay results as given in patent US20130252950A1, “TARGETING MTOR SUBSTRATES IN TREATING PROLIFERATIVE DISEASES” (President and Fellows of Harvard College, priority 2010, published 2013).
Each block holds one molecule with its values, some of them ahead of it.

How the values were obtained:
[1] = system: ERK in wild type (WT) MEFs; test: Immunoblot of ERK activity after growth factor stimulation; assay type: cell-based, mouse; conditions: serum-starved WT MEFs, AZD6244 5 μM two hours, insulin or serum 15 min
Description: (§1) FIG. 2. Phosphorylation of Grb10 at S501/S503 is sensitive to rapamycin inhibition. (A) Identification of a doubly-phosphorylated rapamycin-sensitive Grb10 peptide (MNILSS*QS*[…] , SEQ ID NO: 2, * indicates phosphorylation sites) corresponding to S501/S503. (B) Evolutionary conservation of Grb10 S501/S503 among vertebrate species. […] TSC2−/− cells were starved for serum and treated with 20 nM rapamycin for the indicated times. Sequences, from top to bottom: SEQ ID NO: 1723 to SEQ ID NO: 1727, respectively. (D) Phosphorylation of Grb10 at S501/501 is sensitive to amino acids withdrawal. TSC2−/− cells were starved in DMEM overnight and then transferred to D-PBS for the indicated times. (E) Phosphorylation of Grb10 at S501/S503 is not affected by the pan-kinase inhibitor, staurosporine. TSC2−/− cells were starved for serum and treated with either 100 nM staurosporine or Ku-0063794 at the indicated concentrations for two hours. (F) Grb10 phosphorylation is increased upon growth factor stimulation. Wild type (WT) mouse embryonic fibroblasts (MEFs) were starved for serum overnight and then were stimulated with insulin (100 nM) or serum (10%) for 15 min. The cells were preincubated with the indicated compounds for two hours. […] Rapamycin (rapa) was used at 20 nM. (G) Grb10 phosphorylation at S501/S503 is sensitive to various mTOR kinase inhibitors. […]

[2] = system: Grb10 S501/S503 phosphorylation in wild type (WT) MEFs; test: Immunoblot of Grb10 phosphorylation after insulin or serum stimulation; assay type: cell-based, mouse; conditions: serum-starved WT MEFs, preincubated two hours (rapamycin 20 nM, AZD6244 5 μM), insulin 100 nM or serum 10% 15 min
Description: as §1

[3] = system: Grb10 S501/S503 phosphorylation in TSC2−/− cells; test: Immunoblot of Grb10 S501/S503 phosphorylation with phospho-specific antibody; assay type: cell-based, mouse; conditions: serum-starved TSC2−/− cells, two hours; rapamycin 20 nM, staurosporine 100 nM, LY294002 20 μM, BEZ235 500 nM, torin 100 nM, pp 242 1 μM, Ku-0063794 at indicated concentrations
Description: FIG. 2. Phosphorylation of Grb10 at S501/S503 is sensitive to rapamycin inhibition. (A) Identification of a doubly-phosphorylated rapamycin-sensitive Grb10 peptide (MNILSS*QS*[…] , SEQ ID NO: 2, * indicates phosphorylation sites) corresponding to S501/S503. (B) Evolutionary conservation of Grb10 S501/S503 among vertebrate species. […] TSC2−/− cells were starved for serum and treated with 20 nM rapamycin for the indicated times. Sequences, from top to bottom: SEQ ID NO: 1723 to SEQ ID NO: 1727, respectively. (D) Phosphorylation of Grb10 at S501/501 is sensitive to amino acids withdrawal. TSC2−/− cells were starved in DMEM overnight and then transferred to D-PBS for the indicated times. (E) Phosphorylation of Grb10 at S501/S503 is not affected by the pan-kinase inhibitor, staurosporine. TSC2−/− cells were starved for serum and treated with either 100 nM staurosporine or Ku-0063794 at the indicated concentrations for two hours. (F) Grb10 phosphorylation is increased upon growth factor stimulation. Wild type (WT) mouse embryonic fibroblasts (MEFs) were starved for serum overnight and then were stimulated with insulin (100 nM) or serum (10%) for 15 min. The cells were preincubated with the indicated compounds for two hours. […] Rapamycin (rapa) was used at 20 nM. (G) Grb10 phosphorylation at S501/S503 is sensitive to various mTOR kinase inhibitors. TSC2−/− cells were serum-starved and treated with the indicated compounds for two hours. The concentrations of the compounds were rapamycin 20 nM, LY (LY294002) 20 μM, BEZ235 (NVP-BEZ235) 500 nM, torin 100 nM, and pp 242 1 μM.
We developed a phosphospecific antibody (FIGS. 9A and 9B) to further characterize these two Grb10 phosphorylation sites. […] The dephosphorylation kinetics correlated well with that of S6K.
We further investigated the effects of growth factor stimulation and rapamycin-mediated inhibition on Grb10 phosphorylation in other cell types. Wild-type MEFs were serum-starved and then stimulated with either insulin or 10% serum, both of which led to a robust increase in Grb10 phosphorylation (FIG. 2F). […] It was previously reported that Grb10 S503 (S476 in human Grb10 isoform 3) was phosphorylated by ERK1/2 in vitro (13).

Akt phosphorylation = test: Immunoblot of insulin-induced Akt phosphorylation; conditions: FIG. 5C
Description: For the Ku-screen, wild-type MEFs were grown in light and heavy SILAC media and starved overnight for serum. […] Both the light and heavy cell were subsequently stimulated with insulin for 15 minutes and samples were pooled and analyzed by quantitative mass spectrometry.
Samples were boiled for 5 min and subject to electrophoresis using the standard SDS-PAGE method. Proteins were then transferred to a nitrocellulose membrane (Whatman). The membranes were blocked with a TBST buffer (25 mM Tris-HCl, pH 7.5, 150 mM NaCl, 0.05% Tween 20) containing 3% nonfat dried milk, and probed overnight with primary antibodies at 4° C. and for 1 h at RT with peroxidase-conjugated secondary antibodies. Blots were developed using enhanced chemiluminescence, exposed on autoradiograph film and developed using standard methods.

wild-type MEFs = test: Ku-0063794 screen: SILAC quantitative phosphoproteomics in rapamycin-inhibited, insulin-stimulated cells
[4] = system: Grb10 protein in TSC2−/− cells; test: Immunoblot of Grb10 protein level after long-term treatment; assay type: cell-based, mouse; conditions: TSC2−/− cells, endogenous Grb10
From the text: FIG. 3. mTOR-mediated Grb10 phosphorylation is important for Grb10 stability. (A) Grb10 interacts with raptor, but not rictor. HA-tagged Grb10 was co-transfected with Myc-raptor or Myc-rictor in HEK293T cells. Cells were lysed in lysis buffer A, and the lysates were subjected to immunoprecipitation using anti-HA antibody conjugated beads. Raptor and rictor were probed with an antibody against the Myc-tag. (B) Grb10 is phosphorylated by mTOR in vitro. […] Phosphorylation of Grb10 at S501/S503 was detected by using the phospho-specific antibody against these two sites. (C) Long-term rapamycin treatment leads to Grb10 degradation in TSC2−/− cells. Note that Grb10 protein expression levels inversely correlated with Akt activity. Grb10 is highly overexpressed in TSC2−/− cells. mRNA level was determined using quantitative RT-PCR based on three biological replicate experiments. (D) Knockdown of raptor in TSC2−/− cells decreased Grb10 protein level. Cells were starved overnight and the lysates were probed with the antibodies indicated. (E) Grb10 is highly overexpressed in TSC2−/− cells. (F) S501A/S503A mutant is unstable compared with the wild-type or the S501D/S503D mutant. The same amount of DNA was transfected into HEK293T cells. […] Endogenous Grb10 was detected using an antibody that preferentially recognizes mouse Grb10 whereas the Grb10 DD mutant (of human origin) was detected using an anti-HA antibody.
(§2) FIG. 9. Phosphorylation of Grb10 at S501/S503 regulates its stability. […] Preincubation of the antibody with the […] completely eliminated the immunoreactivity. (B) Further validation of the phospho-specific antibody raised against the Grb10 S501/S503 sites. Grb10 WT, S501A/S503A (AA) and S501D/S503D (DD) were transfected into HEK239T cells and were probed with the antibody. Note that this antibody detected wild type (WT) Grb10, but neither of the mutant proteins. (C) Treatment of TSC2−/− cells with various mTOR kinase inhibitors led to Grb10 degradation. […] (E) Grb10 is highly overexpressed in TSC1−/− cells compared with their wild-type counterparts. (F) rapamycin treatment of TSC2−/− cells stably expressing wild type (WT) Grb10 led to lower levels of both endogenous and exogenous Grb10.
In addition, long-term treatment with mTOR kinase inhibitors, including LY-294002, NVP-BEZ235, torin and pp 242 all led to reduced Grb10 protein expression (FIG. 9C). Similar results were obtained in TSC1−/− MEFs (FIG. 9D). In contrast, we found Grb10 was highly overexpressed in TSC2−/− and TSC1−/− MEFs compared with their wild-type counterparts (FIGS. 3E and 9E), correlating with elevated mTORC1 activity in these cells. […]

[5] = system: Grb10 protein in TSC1−/− cells; test: Immunoblot of Grb10 protein level in TSC1−/− cells; assay type: cell-based, mouse
Description: as §2
In addition, long-term treatment with mTOR kinase inhibitors, including LY-294002, NVP-BEZ235, torin and pp 242 all led to reduced Grb10 protein expression (FIG. 9C). Similar results were obtained in TSC1−/− MEFs (FIG. 9D). In contrast, we found Grb10 was highly overexpressed in TSC2−/− and TSC1−/− MEFs compared with their wild-type counterparts (FIGS. 3E and 9E), correlating with elevated mTORC1 activity in these cells.

[6] = system: phospho-mTOR S2481 in TSC2−/− cells; test: Immunoblot of mTOR S2481 phosphorylation; assay type: cell-based, mouse; conditions: starved TSC2−/− cells; 20 nM rapamycin acute treatment; pp 242 two hours
[7] = system: rpS6 phosphorylation in TSC2−/− cells; test: Immunoblot of rpS6 phosphorylation (S6K activity); assay type: cell-based, mouse; conditions: serum-starved TSC2−/− cells, 100 nM staurosporine, two hours
Description: as §1

[8] = biological target: T1, Myc-tagged rictor (pRK5-Myc-Rictor) (UniProt Q6R327 1-1708); test: co-immunoprecipitation with anti-HA beads from co-transfected HEK293T cells, anti-Myc blot
T1 construct: Co-overexpressed with HA-Grb10 in HEK293T cells; not shown: Myc tag

[9] = downregulated phosphorylation, wt MEFs, 20 nM rapamycin + 2 μM Ku-0063794 2 h vs rapamycin alone, insulin 15 min

T1 sequence (Q6R327 whole entry): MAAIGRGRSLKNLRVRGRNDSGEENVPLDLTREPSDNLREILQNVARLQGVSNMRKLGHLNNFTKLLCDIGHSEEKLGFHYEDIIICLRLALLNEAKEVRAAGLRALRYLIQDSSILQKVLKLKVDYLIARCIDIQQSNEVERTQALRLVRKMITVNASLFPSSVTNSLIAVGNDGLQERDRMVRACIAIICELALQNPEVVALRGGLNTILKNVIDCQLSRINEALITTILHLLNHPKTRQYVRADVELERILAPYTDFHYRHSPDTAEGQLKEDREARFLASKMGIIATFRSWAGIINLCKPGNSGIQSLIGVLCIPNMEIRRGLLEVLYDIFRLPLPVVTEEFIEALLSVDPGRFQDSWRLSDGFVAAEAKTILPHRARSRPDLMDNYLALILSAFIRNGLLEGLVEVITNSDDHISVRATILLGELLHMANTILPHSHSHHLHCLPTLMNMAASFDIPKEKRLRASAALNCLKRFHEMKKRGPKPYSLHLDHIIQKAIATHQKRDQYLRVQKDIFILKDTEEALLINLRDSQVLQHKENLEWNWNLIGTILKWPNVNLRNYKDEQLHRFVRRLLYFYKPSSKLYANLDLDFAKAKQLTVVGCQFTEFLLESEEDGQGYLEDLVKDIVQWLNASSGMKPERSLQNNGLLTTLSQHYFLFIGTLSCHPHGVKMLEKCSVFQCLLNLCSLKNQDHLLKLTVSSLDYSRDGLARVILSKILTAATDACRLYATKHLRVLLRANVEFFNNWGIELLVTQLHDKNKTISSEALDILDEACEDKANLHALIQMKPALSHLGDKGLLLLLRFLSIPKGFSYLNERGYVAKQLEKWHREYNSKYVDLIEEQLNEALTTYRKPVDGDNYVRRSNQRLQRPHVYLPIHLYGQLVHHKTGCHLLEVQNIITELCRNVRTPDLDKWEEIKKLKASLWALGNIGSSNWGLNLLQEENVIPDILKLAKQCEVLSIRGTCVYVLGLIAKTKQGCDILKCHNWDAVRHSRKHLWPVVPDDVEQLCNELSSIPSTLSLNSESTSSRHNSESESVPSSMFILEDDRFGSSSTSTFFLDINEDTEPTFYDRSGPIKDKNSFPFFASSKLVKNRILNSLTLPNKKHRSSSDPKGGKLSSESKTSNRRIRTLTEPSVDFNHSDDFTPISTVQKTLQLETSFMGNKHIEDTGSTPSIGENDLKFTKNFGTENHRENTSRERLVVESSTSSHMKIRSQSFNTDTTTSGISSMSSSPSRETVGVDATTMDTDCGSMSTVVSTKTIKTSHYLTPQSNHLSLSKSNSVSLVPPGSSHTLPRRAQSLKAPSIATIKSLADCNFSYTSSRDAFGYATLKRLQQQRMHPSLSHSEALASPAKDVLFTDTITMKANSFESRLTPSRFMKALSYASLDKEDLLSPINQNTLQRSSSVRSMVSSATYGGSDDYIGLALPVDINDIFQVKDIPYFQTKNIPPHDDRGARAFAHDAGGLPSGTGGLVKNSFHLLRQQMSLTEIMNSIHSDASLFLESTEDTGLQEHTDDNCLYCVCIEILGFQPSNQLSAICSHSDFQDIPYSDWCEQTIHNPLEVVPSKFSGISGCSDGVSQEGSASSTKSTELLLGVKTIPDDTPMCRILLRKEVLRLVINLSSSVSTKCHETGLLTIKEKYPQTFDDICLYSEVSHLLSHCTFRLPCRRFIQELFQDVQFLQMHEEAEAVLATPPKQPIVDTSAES

Molecule: Cn1cnc2c(F)c(Nc3ccc(Br)cc3Cl)c(C(=O)NOCCO)cc21 [AZD6244]
activities of ERK [1]: completely abolished
insulin- or serum-induced Grb10 S501/S503 phosphorylation [2]: no effect

Median (treated/ctrl) fold-change of phosphopeptide TTS*FAESCKPVQQPSAFGSMK, Gsk3β S9 (wild-type MEFs; [9]): ~2.2 fold
Molecule: COc1ccc(-c2ccc3c(N4CCOCC4)nc(N4C[C@@H](C)O[C@@H](C)C4)nc3n2)cc1CO [Ku-0063794]
Grb10 S501/S503 phosphorylation (immunoblot) [3]: dose-dependent dephosphorylation
insulin-induced Akt phosphorylation (Akt phosphorylation): inhibits
4EBP T36/T45 phosphorylation (FIG. 6A) (wild-type MEFs; Ku-0063794 screen): completely abolished
intensity of T70 singly phosphorylated 4EBP1 peptide (wild-type MEFs; Ku-0063794 screen): did not change
rpS6 S235/236 phosphorylation (Class I site) (wild-type MEFs; Ku-0063794 screen, rapamycin-inhibited background): not further decreased
Median (treated/ctrl) fold-change of phosphopeptide DRSSS*APNVHINTIEPVNIDDLIR, Braf S312 (wild-type MEFs; [9]): 2.1 fold
Median (treated/ctrl) fold-change of phosphopeptide Eif4ebp1 T36, T45 (wild-type MEFs; [9]): 7.2 fold
Median (treated/ctrl) fold-change of phosphopeptide Eif4ebp2 S65 (wild-type MEFs; [9]): 6.8 fold
Median (treated/ctrl) fold-change of phosphopeptide LGS*FGSITR, Flnc S2234 (wild-type MEFs; [9]): 2.4 fold
Median (treated/ctrl) fold-change of phosphopeptide LNT*SDFQK, Akt1s1 T247 (wild-type MEFs; [9]): 31.3 fold
Median (treated/ctrl) fold-change of phosphopeptide TAS*GSS*VTSLEGTR, Ndrg1 S330, S333 (wild-type MEFs; [9]): 4.1 fold
Median (treated/ctrl) fold-change of phosphopeptide TGS*ESSQTGASATSGR, Eif4b S422 (wild-type MEFs; [9]): 2.2 fold

Molecule: Cn1c(=O)n(-c2ccc(C(C)(C)C#N)cc2)c2c3cc(-c4cnc5ccccc5c4)ccc3ncc21 [NVP-BEZ235]
Grb10 protein levels after long-term treatment [4]: reduced
Grb10 S501/S503 phosphorylation (immunoblot) [3]: completely abolished
level of Grb10 in TSC1−/− cells [5]: decreased level

Molecule: CC(C)n1nc(-c2cc3cc(O)ccc3[nH]2)c2c(N)ncnc21 [pp 242]
Grb10 protein levels after long-term treatment [4]: reduced
Grb10 S501/S503 phosphorylation (immunoblot) [3]: completely abolished
mTOR S2481 phosphorylation (immunoblot) [6]: completely ablated

Molecule: CN[C@@H]1C[C@H]2O[C@@](C)([C@@H]1OC)n1c3ccccc3c3c4c(c5c6ccccc6n2c5c31)C(=O)NC4 [staurosporine]
Grb10 S501/S503 phosphorylation (immunoblot) [3]: No change
rpS6 phosphorylation (S6K activity) [7]: complete loss

Molecule: CCC(=O)N1CCN(c2ccc(-n3c(=O)ccc4cnc5ccc(-c6cnc7ccccc7c6)cc5c43)cc2C(F)(F)F)CC1 [torin]
Grb10 protein levels after long-term treatment [4]: reduced
Grb10 S501/S503 phosphorylation (immunoblot) [3]: completely abolished

binding result [8]: no binding
B1: HA-tagged Grb10 (human growth factor receptor-bound protein 10, wild type) (other, UniProt Q13322-3 1-536, looked up)
chain: MNASLESLYSACSMQSDTVPLLQNGQHARSQPRASGPPRSIQPQVSPRQRVQRSQPVHILAVRRLQEEDQQFRTSSLPAIPNPFPELCGPGSPPVLTPGSLPPSQAAAKQDVKVFSEDGTSKVVEILADMTARDLCQLLVYKSHCVDDNSWTLVEHHPHLGLERCLEDHELVVQVESTMASESKFLFRKNYAKYEFFKNPMNFFPEQMVTWCQQSNGSQTQLLQNFLNSSSCPEIQGFLHVKELGKKSWKKLYVCLRRSGLYCSTKGTSKEPRHLQLLADLEDSNIFSLIAGRKQYNAPTDHGLCIKPNKVRNETKELRLLCAEDEQTRTCWMTAFRLLKYGMLLYQNYRIPQQRKALLSPFSTPVRSVSENSLVAMDFSGQTGRVIENPAEAQSAALEEGHAWRKRSTRMNILGSQSPLHPSTLSTVIHRTQHWFHGRISREESHRIIKQQGLVDGLFLLRDSQSNPKAFVLTLCHHQKIKNFQILPCEDDGQTFFSLDDGNTKFSDLIQLVDFYQLNKGVLPCKLKHHCIRVAL
notes: Expressed by transfection in HEK293T cells; The phospho-specific antibody recognises it in the form phosphorylated at S501/S503 (mouse isoform 1 numbering) in cells; also called WT-Grb10; Grb10 WT; not shown: HA tag from vector pKH3
